According to patent US20080161246A1, “Cytochrome P450 Oxidase Inhibitors and Uses Thereof” (ABBOTT LABORATORIES, priority 2006, published 2008):

Target: T1, human microsomes containing CYP3A4 (Homo sapiens, UniProt P08684)
T1 construct: human microsomes containing CYP3A4; from tissue
Assay: Protection of lopinavir from metabolism by human microsomes containing CYP3A4
Type: biochemical
Details: unmetabolized lopinavir after incubation with human microsomes containing CYP3A4; for % LPV Remaining (0.4 μM): compound at 0.4 μM; for % LPV Remaining (4 μM): compound at 4 μM
Procedure: The pharmacokinetics boosting effects of the compounds of the present invention were evaluated by measuring the compounds' protective effects on the metabolism of lopinavir, an HIV protease inhibitor. Lopinavir were mixed with human microsomes containing CYP3A4 in the presence of a compound of the invention. […] Significant pharmacokinetics boosting effects were also observed for some compounds at 0.4 μM (“% LPV Remaining (0.4 μM)”).

T1 sequence (P08684 whole entry): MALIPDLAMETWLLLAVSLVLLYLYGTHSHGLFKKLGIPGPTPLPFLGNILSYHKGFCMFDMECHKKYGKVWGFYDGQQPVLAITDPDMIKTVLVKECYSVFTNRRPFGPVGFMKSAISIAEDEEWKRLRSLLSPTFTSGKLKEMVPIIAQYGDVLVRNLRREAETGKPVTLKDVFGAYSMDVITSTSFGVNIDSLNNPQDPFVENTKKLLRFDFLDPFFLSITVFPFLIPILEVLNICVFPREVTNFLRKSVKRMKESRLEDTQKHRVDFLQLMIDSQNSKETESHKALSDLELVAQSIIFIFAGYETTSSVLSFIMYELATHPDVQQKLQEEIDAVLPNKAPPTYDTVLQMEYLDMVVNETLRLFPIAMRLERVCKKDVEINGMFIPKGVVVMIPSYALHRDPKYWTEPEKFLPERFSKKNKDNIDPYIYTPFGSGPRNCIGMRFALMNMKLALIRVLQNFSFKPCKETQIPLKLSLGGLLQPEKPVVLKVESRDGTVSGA

% LPV Remaining (0.4 μM) | % LPV Remaining (4 μM) | SMILES
2% | 77% | CC(C)CN(CC(C)C)C(=O)[C@H](Cc1ccccc1)NC(=O)OCc1cncs1 [N,N-diisobutyl-N-[(1,3-thiazol-5-ylmethoxy)carbonyl]-L-phenylalaninamide]
1.9% | 78% | O=C(N[C@@H](Cc1ccccc1)C(=O)N(Cc1ccccc1)Cc1ccccc1)OCc1cncs1 [N,N-dibenzyl-N-[(1,3-thiazol-5-ylmethoxy)carbonyl]-L-phenylalaninamide]
1.8% | 83% | O=C(NC(Cc1ccccc1)C(=O)N(CCc1ccccc1)Cc1ccccc1)OCc1cncs1 [N-benzyl-N-(2-phenylethyl)-N-[(1,3-thiazol-5-ylmethoxy)carbonyl]-L-phenylalaninamide]
